Data taken from patent US9302999B2, “Substituted triazoles as herbicides” (E. I. DU PONT DE NEMOURS AND COMPANY, priority 2012, dated 2016).
Where two headings read alike, the source gives them in different places.

Legend:
Format in all cases: in vivo
corn (Zea mays) [1] = assay: Test C pre-/postemergence: corn
In short: (§1)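 Preemergence on seeds in loam/sand, postemergence on 2–18 cm (1–4-leaf) plants in peat-based medium; compounds in non-phytotoxic solvent with surfactant. After 13–15 days in greenhouse, visual rating versus controls, 0 (no effect) to 100 (complete control).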

[2] = system: nutsedge, yellow (yellow nutsedge, Cyperus esculentus); assay: Test C pre-/postemergence: nutsedge, yellow
In short: as §1

[3] = system: galium (catchweed bedstraw, Galium aparine); assay: Test C pre-/postemergence: galium
In short: as §1

soybean (Glycine max) = assay: Test C pre-/postemergence: soybean
In short: as §1

corn (Zea mays) [4] = assay: Test A pre-/postemergence: corn; conditions: for Corn plant response rating: 1000 g ai/ha
In short: (§2)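 Compounds, formulated with surfactant in non-phytotoxic solvent, were applied as a directed soil spray preemergence and as postemergence sprays to 2–10 cm, one- to two-leaf seedlings grown in loam soil blended with sand; visual injury, 0–100, assessed ~10 days post-treatment against untreated controls.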

[5] = system: velvetleaf (Abutilon theophrasti); assay: Test C pre-/postemergence: velvetleaf
In short: as §1

[6] = system: morningglory (Ipomoea coccinea); assay: Test C pre-/postemergence: morningglory
In short: as §1

[7] = system: pigweed (Amaranthus retroflexus); assay: Test A pre-/postemergence: pigweed; conditions: for pest or weed control at 125 g/ha / pest or weed control at 500 g/ha: Amaranthus retroflexus, 240 h; for pest or weed control at 125 g/ha: 125 g ai/ha; for pest or weed control at 500 g/ha: 500 g ai/ha; for Pigweed plant response rating: 1000 g ai/ha
In short: as §2

[8] = system: winter wheat (Triticum aestivum); assay: Test C pre-/postemergence: winter wheat
In short: as §1

[9] = system: chickweed (common chickweed, Stellaria media); assay: Test C postemergence: chickweed
Text: At the same time, plants selected from these crop and weed species and also barley (winter barley, Hordeum vulgare), canarygrass (Phalaris minor), chickweed (common chickweed, Stellaria media) windgrass (Apera spica-venti) and deadnettle (henbit deadnettle, Lamium amplexicaule) were planted in pots containing Redi-Earth® planting medium (Scotts Company, 14111 Scottslawn Road, Marysville, Ohio 43041) comprising spaghnum peat moss, vermiculite, wetting agent and starter nutrients and treated with postemergence applications of test chemicals formulated in the same manner. Plants ranged in height from 2 to 18 cm (1- to 4-leaf stage) for postemergence treatments.
Treated plants and controls were maintained in a greenhouse for 13 to 15 days, after which time all species were compared to controls and visually evaluated. Plant response ratings, summarized in Table C, are based on a scale of 0 to 100 where 0 is no effect and 100 is complete control. A dash (-) response means no test result.

[10] = system: johnsongrass (Sorghum halepense); assay: Test C pre-/postemergence: johnsongrass
In short: as §1

[11] = system: foxtail, giant (giant foxtail, Setaria faberii); assay: Test C pre-/postemergence: foxtail, giant
In short: as §1

[12] = Postemergence, 31 g ai/ha, scale 0 to 100 (0 no effect, 100 complete control)
[13] = Postemergence, 62 g ai/ha, scale 0 to 100 (0 no effect, 100 complete control)
[14] = Postemergence, 125 g ai/ha, scale 0 to 100, 0 no effect, 100 complete control
[15] = Postemergence, 250 g ai/ha, scale 0 to 100
[16] = Preemergence, 31 g ai/ha, scale of 0 to 100, 0 is no effect, 100 is complete control
[17] = Preemergence, 125 g ai/ha, scale 0 to 100, 0 no effect, 100 complete control
[18] = Preemergence, 250 g ai/ha, scale 0 to 100, 0 no effect, 100 complete control
[19] = Preemergence, 62 g ai/ha, scale of 0 to 100, 0 is no effect, 100 is complete control
[20] = 31 g ai/ha, scale 0 to 100 (0 no effect, 100 complete control)
[21] = Postemergence, 16 g ai/ha, scale 0 to 100, 0 no effect, 100 complete control
[22] = Postemergence, visual rating on 0 to 100 scale (0 no effect, 100 complete control), approximately ten days
[23] = Preemergence, 0 to 100 scale, 0 is no effect, 100 is complete control

## Cc1nn(-c2ccc(C(F)(F)F)cc2)nc1Cc1ccnc(C(F)(F)F)c1 [Compound 47, 4-[[5-methyl-2-[4-(trifluoromethyl)phenyl]-2H-1,2,3-triazol-4-yl]methyl]-2-(trifluoromethyl)pyridine]
Corn (Zea mays) [1]; [12]
  Plant response rating, Corn: 5
Corn (Zea mays) [1]; [13]
  Plant response rating, Corn: 15
Corn (Zea mays) [1]; [14]
  Plant response rating, Corn: 15
Corn (Zea mays) [1]; [15]
  Plant response rating, Corn: 25
Corn (Zea mays) [1]; [16]
  Plant response rating, Corn: 0
Corn (Zea mays) [1]; Preemergence, 62 g ai/ha, scale 0 to 100, 0 no effect, 100 complete control
  Plant response rating, Corn: 5
Corn (Zea mays) [1]; [17]
  Plant response rating, Corn: 10
Corn (Zea mays) [1]; [18]
  Plant response rating, Corn: 40
[2]; [12]
  Plant response rating, Nutsedge, Yellow: 0
[2]; [13]
  Plant response rating, Nutsedge, Yellow: 0
[2]; [14]
  Plant response rating, Nutsedge, Yellow: 0
[2]; [15]
  Plant response rating, Nutsedge, Yellow: 0
[2]; [16]
  Plant response rating, Nutsedge, Yellow: 0
[2]; [19]
  Plant response rating, Nutsedge, Yellow: 0
[2]; [17]
  Plant response rating, Nutsedge, Yellow: 0
[2]; [18]
  Plant response rating, Nutsedge, Yellow: 0
[3]; [12]
  Plant response rating, Galium: 80
[3]; [13]
  Plant response rating, Galium: 80
[3]; [14]
  Plant response rating, Galium: 95
[3]; [15]
  Plant response rating, Galium: 98
[3]; [16]
  Plant response rating, Galium: 85
[3]; [19]
  Plant response rating, Galium: 100
[3]; [17]
  Plant response rating, Galium: 100
[3]; [18]
  Plant response rating, Galium: 100
Soybean (Glycine max); [12]
  Plant response rating, Soybean: 40
Soybean (Glycine max); [13]
  Plant response rating, Soybean: 70
Soybean (Glycine max); [14]
  Plant response rating, Soybean: 75
Soybean (Glycine max); [15]
  Plant response rating, Soybean: 75
Soybean (Glycine max); [16]
  Plant response rating, Soybean: 0
Soybean (Glycine max); [19]
  Plant response rating, Soybean: 0
Soybean (Glycine max); [17]
  Plant response rating, Soybean: 5
Soybean (Glycine max); [18]
  Plant response rating, Soybean: 35
Corn (Zea mays) [4]; Zea mays, post-emergence, 240 h, Postemergence, 125 g ai/ha, 0 to 100 scale, 0 is no effect, 100 is complete control, read-out: Corn plant response rating
  plant injury at 125 g/ha: 20%
Corn (Zea mays) [4]; Zea mays, post-emergence, 240 h, Postemergence, 500 g ai/ha, visual rating on 0 to 100 scale (0 no effect, 100 complete control), approximately ten days, read-out: Corn plant response rating
  plant injury at 500 g/ha: 40%
Corn (Zea mays) [4]; Zea mays, pre-emergence, 240 h, Preemergence, 125 g ai/ha, 0 to 100 scale (0 no effect, 100 complete control)
  Corn plant response rating (crop injury, 0 = no effect, 100 = complete kill) at 125 g/ha: 20%
Corn (Zea mays) [4]; Zea mays, pre-emergence, 240 h, Preemergence, 500 g ai/ha, 0 to 100 scale, 0 is no effect, 100 is complete control
  Corn plant response rating (crop injury, 0 = no effect, 100 = complete kill) at 500 g/ha: 30%
[5]; [12]
  Plant response rating, Velvetleaf: 65
[5]; [13]
  Plant response rating, Velvetleaf: 70
[5]; [14]
  Plant response rating, Velvetleaf: 80
[5]; [15]
  Plant response rating, Velvetleaf: 90
[5]; [16]
  Plant response rating, Velvetleaf: 45
[5]; [19]
  Plant response rating, Velvetleaf: 60
[5]; [17]
  Plant response rating, Velvetleaf: 90
[5]; [18]
  Plant response rating, Velvetleaf: 100
[6]; [12]
  Plant response rating, Morningglory: 75
[6]; [13]
  Plant response rating, Morningglory: 95
[6]; [14]
  Plant response rating, Morningglory: 100
[6]; [15]
  Plant response rating, Morningglory: 100
[6]; [16]
  Plant response rating, Morningglory: 5
[6]; [19]
  Plant response rating, Morningglory: 20
[6]; [17]
  Plant response rating, Morningglory: 50
[6]; [18]
  Plant response rating, Morningglory: 65
[7]; post-emergence, Postemergence, 0 to 100 scale, 0 is no effect, 100 is complete control, read-out: Pigweed plant response rating
  pest or weed control at 125 g/ha: 100%
[7]; post-emergence, Postemergence, visual rating on 0 to 100 scale (0 no effect, 100 complete control), approximately ten days, read-out: Pigweed plant response rating
  pest or weed control at 500 g/ha: 100%
[7]; pre-emergence, Preemergence, 0 to 100 scale (0 no effect, 100 complete control), read-out: Plant response rating, Pigweed
  pest or weed control at 125 g/ha: 100%
[7]; pre-emergence, Preemergence, 0 to 100 scale, 0 is no effect, 100 is complete control, read-out: Plant response rating, Pigweed
  pest or weed control at 500 g/ha: 100%
[8]; [12]
  Plant response rating, Wheat: 15
[8]; [13]
  Plant response rating, Wheat: 35
[8]; [14]
  Plant response rating, Wheat: 45
[8]; [15]
  Plant response rating, Wheat: 50
[8]; [16]
  Plant response rating, Wheat: 0
[8]; [19]
  Plant response rating, Wheat: 5
[8]; [17]
  Plant response rating, Wheat: 35
[8]; [18]
  Plant response rating, Wheat: 40
[9]; [20]
  Plant response rating, Chickweed: 80
[10]; [12]
  Plant response rating, Johnsongrass: 0
[10]; [13]
  Plant response rating, Johnsongrass: 10
[10]; [14]
  Plant response rating, Johnsongrass: 35
[10]; [15]
  Plant response rating, Johnsongrass: 50
[10]; [16]
  Plant response rating, Johnsongrass: 5
[10]; [19]
  Plant response rating, Johnsongrass: 10
[10]; [17]
  Plant response rating, Johnsongrass: 60
[10]; [18]
  Plant response rating, Johnsongrass: 95
[11]; [12]
  Plant response rating, Foxtail, Giant: 65
[11]; [13]
  Plant response rating, Foxtail, Giant: 65
[11]; [14]
  Plant response rating, Foxtail, Giant: 80
[11]; [15]
  Plant response rating, Foxtail, Giant: 98
[11]; [16]
  Plant response rating, Foxtail, Giant: 95
[11]; [19]
  Plant response rating, Foxtail, Giant: 100
[11]; [17]
  Plant response rating, Foxtail, Giant: 100
[11]; [18]
  Plant response rating, Foxtail, Giant: 100

## Cc1nn(-c2ccc(C(F)(F)F)cc2)nc1Cc1cccc(C(F)(F)F)c1 [Compound 124]
Corn (Zea mays) [1]; [21]
  Plant response rating, Corn: 5
Corn (Zea mays) [1]; [12]
  Plant response rating, Corn: 20
Corn (Zea mays) [1]; [13]
  Plant response rating, Corn: 25
Corn (Zea mays) [1]; [14]
  Plant response rating, Corn: 25
[2]; [21]
  Plant response rating, Nutsedge, Yellow: 0
[2]; [12]
  Plant response rating, Nutsedge, Yellow: 0
[2]; [13]
  Plant response rating, Nutsedge, Yellow: 0
[2]; [14]
  Plant response rating, Nutsedge, Yellow: 0
[3]; [21]
  Plant response rating, Galium: 70
[3]; [12]
  Plant response rating, Galium: 70
[3]; [13]
  Plant response rating, Galium: 80
[3]; [14]
  Plant response rating, Galium: 85
Soybean (Glycine max); [21]
  Plant response rating, Soybean: 45
Soybean (Glycine max); [12]
  Plant response rating, Soybean: 55
Soybean (Glycine max); [13]
  Plant response rating, Soybean: 55
Soybean (Glycine max); [14]
  Plant response rating, Soybean: 60
Corn (Zea mays) [4]; [22]
  Corn plant response rating: 60
Corn (Zea mays) [4]; [23]
  Corn plant response rating: 10
[5]; [21]
  Plant response rating, Velvetleaf: 45
[5]; [12]
  Plant response rating, Velvetleaf: 45
[5]; [13]
  Plant response rating, Velvetleaf: 50
[5]; [14]
  Plant response rating, Velvetleaf: 55
[6]; [21]
  Plant response rating, Morningglory: 15
[6]; [12]
  Plant response rating, Morningglory: 15
[6]; [13]
  Plant response rating, Morningglory: 40
[6]; [14]
  Plant response rating, Morningglory: 40
[7]; [22]
  Pigweed plant response rating: 100
[7]; [23]
  Pigweed plant response rating: 100
[8]; [21]
  Plant response rating, Wheat: 5
[8]; [12]
  Plant response rating, Wheat: 10
[8]; [13]
  Plant response rating, Wheat: 15
[8]; [14]
  Plant response rating, Wheat: 20
[9]; 16 g ai/ha, scale 0 to 100, 0 no effect, 100 complete control
  Plant response rating, Chickweed: 45
[9]; [20]
  Plant response rating, Chickweed: 50
[9]; 62 g ai/ha, scale 0 to 100 (0 no effect, 100 complete control)
  Plant response rating, Chickweed: 55
[9]; 125 g ai/ha, scale 0 to 100, 0 no effect, 100 complete control
  Plant response rating, Chickweed: 55
[10]; [21]
  Plant response rating, Johnsongrass: 5
[10]; [12]
  Plant response rating, Johnsongrass: 5
[10]; [13]
  Plant response rating, Johnsongrass: 40
[10]; [14]
  Plant response rating, Johnsongrass: 45
[11]; [21]
  Plant response rating, Foxtail, Giant: 15
[11]; [12]
  Plant response rating, Foxtail, Giant: 15
[11]; [13]
  Plant response rating, Foxtail, Giant: 25
[11]; [14]
  Plant response rating, Foxtail, Giant: 45
